Values after ≈ are worked out from the molar mass of the structure shown. Like-named read-outs stand apart in the source and are kept apart here.
What was measured:
E. coli CSH(RE45) = experiment: microbe, parasite or virus in culture; assay type: cell-based; settings: Escherichia coli, 16 h, read-out: Minimum Inhibitory Concentration (MIC), *E. coli CSH(RE45), lactamase-producing strain; 10^6 CFU/ml
Summary of the method: (§1)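 Agar plate dilution on Mueller Hinton agar containing graded compound levels, inoculated at 10^6 CFU/ml from overnight Mueller Hinton broth cultures. MIC (μg/ml) read after 16 h at 37°C.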

E. coli CSH2 (RK1) = experiment: microbe, parasite or virus in culture; assay type: cell-based; settings: Escherichia coli, 16 h, read-out: Minimum Inhibitory Concentration (MIC), *E. coli CSH2 (RK1), lactamase-producing strain; 10^6 CFU/ml
Summary of the method: as §1

E. cloacae 963 = experiment: in vitro antibacterial activity, agar plate dilution method (MIC); assay type: cell-based; settings: 10^6 CFU/ml
Summary of the method: as §1

E. cloacae Nek 39 = experiment: as above; assay type: cell-based; settings: Enterobacter cloacae, NEK39, 16 h, read-out: Minimum Inhibitory Concentration (MIC), *E. cloacae Nek 39, lactamase-producing strain; 10^6 CFU/ml
Summary of the method: as §1

E. coli GN5482 = experiment: as above; assay type: cell-based; settings: Escherichia coli, GN5482, 16 h
Summary of the method: as §1

E. coli NIHJ JC2 = experiment: as above; assay type: cell-based; settings: Escherichia coli, NIHJJC2, 16 h, read-out: Minimum Inhibitory Concentration (MIC), E. coli NIHJ JC2, 10^6 CFU/ml, 37° C.
Summary of the method: as §1

K. oxytoca GN10650 = experiment: as above; assay type: cell-based; settings: Klebsiella oxytoca, 10^6 CFU/ml
Summary of the method: as §1

K. pneumoniae No. 42 = experiment: as above; assay type: cell-based; settings: Klebsiella pneumoniae, 10^6 CFU/ml
Summary of the method: as §1

K. pneumoniae PCI-602 = experiment: as above; assay type: cell-based; settings: Klebsiella pneumoniae, PCI602, 16 h; K. pneumoniae PCI-602; 10^6 CFU/ml; read-out: Minimum Inhibitory Concentration (MIC)
Summary of the method: as §1

M. morganii GN5407 = experiment: as above; assay type: cell-based; settings: Morganella morganii, GN5407, 16 h, read-out: Minimum Inhibitory Concentration (MIC), *M. morganii GN5407, lactamase-producing strain; 10^6 CFU/ml
Summary of the method: as §1

P. vulgaris HX-19 = experiment: as above; assay type: cell-based; settings: Proteus vulgaris, HX19, 16 h, P. vulgaris HX-19; 10^6 CFU/ml; read-out: Minimum Inhibitory Concentration (MIC)
Summary of the method: as §1

P. vulgaris No. 33 = experiment: as above; assay type: cell-based; settings: Proteus vulgaris, NO.33, 16 h, read-out: Minimum Inhibitory Concentration (MIC), *P. vulgaris No. 33, lactamase-producing strain; 10^6 CFU/ml
Summary of the method: as §1

S. aureus 209P NIHJ-JC1 = experiment: as above; assay type: cell-based; settings: Staphylococcus aureus, 16 h, 10^6 CFU/ml, 37° C., 16 hours
Summary of the method: as §1

S. marcescens IAM 1184 = experiment: as above; assay type: cell-based; settings: Serratia marcescens, IAM1184, 16 h, read-out: Minimum Inhibitory Concentration (MIC)
Summary of the method: as §1

S. marcescens No. 16-2 = experiment: as above; assay type: cell-based; settings: Serratia marcescens, NO.162, 16 h, read-out: Minimum Inhibitory Concentration (MIC)
Summary of the method: as §1

Ps. aeruginosa AK 109 = experiment: as above; assay type: cell-based, Pseudomonas aeruginosa; settings: Pseudomonas aeruginosa, AK109, 16 h, 10^6 CFU/ml
Summary of the method: as §1

Ps. aeruginosa AKR17 = experiment: as above; assay type: cell-based, Pseudomonas aeruginosa; settings: Pseudomonas aeruginosa, read-out: Minimum Inhibitory Concentration (MIC)
Summary of the method: as §1

Ps. aeruginosa IF03445 = experiment: as above; assay type: cell-based, Pseudomonas aeruginosa; settings: Pseudomonas aeruginosa, 10^6 CFU/ml
Summary of the method: as §1

Ps. cepacia 23 = experiment: as above; assay type: cell-based, Pseudomonas cepacia; settings: read-out: Minimum Inhibitory Concentration (MIC)
Summary of the method: as §1

A. calcoaceticus No. 4 = experiment: as above; assay type: cell-based, Acinetobacter calcoaceticus; settings: Acinetobacter calcoaceticus, NO.4, 16 h, 10^6 CFU/ml
Summary of the method: as §1

[1] = Enterobacter cloacae, 963, 16 h, read-out: Minimum Inhibitory Concentration (MIC), E. cloacae 963
[2] = NO.42, 16 h, read-out: Minimum Inhibitory Concentration (MIC), *K. pneumoniae No. 42, lactamase-producing strain
[3] = S. aureus 209P NIHJ-JC1, read-out: Minimum Inhibitory Concentration (MIC)
[4] = read-out: Minimum Inhibitory Concentration (MIC), *E. coli GN5482, lactamase-producing strain, 10^6 CFU/ml
[5] = 16 h, *K. oxytoca GN10650, lactamase-producing strain, read-out: Minimum Inhibitory Concentration (MIC)
[6] = *S. marcescens No. 16-2, lactamase-producing strain, 10^6 CFU/ml
[7] = Ps. aeruginosa AK 109, read-out: Minimum Inhibitory Concentration (MIC)
[8] = 16 h, Ps. aeruginosa AKR17, 10^6 CFU/ml
[9] = 16 h, Ps. aeruginosa IF03445, read-out: Minimum Inhibitory Concentration (MIC)
[10] = A. calcoaceticus No. 4, read-out: Minimum Inhibitory Concentration (MIC)

For `Nc1nc(C(=NOC2(C(=O)O)CC2)C(=O)NC2C(=O)N3C(C(=O)O)=C(CSc4nc(-c5ccc(O)c(O)c5)c(CC(=O)O)s4)CSC23)cs1` (stereo not drawn) [Example 60 (I), trisodium 7β-[2-(2-aminothiazol-4-yl)-2-(1-carboxylate-1-cyclopropoxyimino)acetamido]-3-[4-(3,4-dihydroxyphenyl)-5-carboxylatemethylthiazol-2-yl]thiomethyl-3-cephem-4-carboxylate], the MIC (E. coli CSH(RE45)) was 3.12 µg/mL, the MIC (E. coli CSH2 (RK1)) was 0.05 µg/mL and the MIC (E. cloacae 963; [1]) was 0.78 µg/mL. The MIC (E. cloacae Nek 39) was 0.39 µg/mL, the MIC (E. coli GN5482; read-out: Minimum Inhibitory Concentration (MIC)) was 3.12 µg/mL and the MIC (E. coli NIHJ JC2) was 1.56 µg/mL. It also gave an MIC (K. oxytoca GN10650; GN10650, 16 h, read-out: Minimum Inhibitory Concentration (MIC), *K. oxytoca GN10650, lactamase-producing strain) of 0.39 µg/mL, an MIC (K. pneumoniae No. 42; [2]) of 0.39 µg/mL and an MIC (K. pneumoniae PCI-602) of 0.025 µg/mL. For the same molecule, the MIC (M. morganii GN5407) was 0.39 µg/mL, the MIC (P. vulgaris HX-19) was 0.025 µg/mL and the MIC (P. vulgaris No. 33) was 0.1 µg/mL. It also gave an MIC (S. aureus 209P NIHJ-JC1; [3]) of 50 µg/mL, an MIC (S. marcescens IAM 1184; S. marcescens IAM 1184, 10^6 CFU/ml) of 0.2 µg/mL and an MIC (S. marcescens No. 16-2) of 3.12 µg/mL. For the same molecule, the MIC (Ps. aeruginosa AK 109; read-out: Minimum Inhibitory Concentration (MIC), Ps. aeruginosa AK 109) was 1.56 µg/mL, the MIC (Ps. aeruginosa AKR17; AKR17, 16 h) was 3.12 µg/mL and the MIC (Ps. aeruginosa IF03445; IF03445, 16 h, read-out: Minimum Inhibitory Concentration (MIC), Ps. aeruginosa IF03445) was 1.56 µg/mL. It also gave an MIC (Ps. cepacia 23; Burkholderia cepacia, 16 h, Ps. cepacia 23, 10^6 CFU/ml) of 0.0125 µg/mL and an MIC (A. calcoaceticus No. 4; read-out: Minimum Inhibitory Concentration (MIC), A. calcoaceticus No. 4) of 0.78 µg/mL.

`CO/N=C(\C(=O)N[C@@H]1C(=O)N2C(C(=O)O)=C(CSc3nnc(-c4ccc(O)cc4)o3)CS[C@H]12)c1csc(N)n1` [compound 2, reference compound] showed an MIC (E. coli CSH(RE45)) of 0.39 µg/mL (≈ 0.661 µM), an MIC (E. coli CSH2 (RK1)) of 0.78 µg/mL (≈ 1.32 µM) and an MIC (E. cloacae 963; Enterobacter cloacae, 16 h, E. cloacae 963, read-out: Minimum Inhibitory Concentration (MIC)) of 1.56 µg/mL (≈ 2.65 µM). For the same molecule, the MIC (E. cloacae Nek 39) was 6.25 µg/mL (≈ 10.6 µM), the MIC (E. coli GN5482; [4]) was 0.78 µg/mL (≈ 1.32 µM) and the MIC (E. coli NIHJ JC2) was 0.78 µg/mL (≈ 1.32 µM). The MIC (K. oxytoca GN10650; [5]) was 25 µg/mL (≈ 42.4 µM), the MIC (K. pneumoniae No. 42; 16 h, *K. pneumoniae No. 42, lactamase-producing strain, read-out: Minimum Inhibitory Concentration (MIC)) was 1.56 µg/mL (≈ 2.65 µM) and the MIC (K. pneumoniae PCI-602) was 0.0125 µg/mL (≈ 0.0212 µM). For the same molecule, the MIC (M. morganii GN5407) was 0.78 µg/mL (≈ 1.32 µM), the MIC (P. vulgaris HX-19) was under 0.006 µg/mL and the MIC (P. vulgaris No. 33) was 0.78 µg/mL (≈ 1.32 µM). For the same molecule, the MIC (S. aureus 209P NIHJ-JC1; read-out: Minimum Inhibitory Concentration (MIC), S. aureus 209P NIHJ-JC1) was 0.78 µg/mL (≈ 1.32 µM), the MIC (S. marcescens IAM 1184) was 0.78 µg/mL (≈ 1.32 µM) and the MIC (S. marcescens No. 16-2; [6]) was 25 µg/mL (≈ 42.4 µM). For the same molecule, the MIC (Ps. aeruginosa AK 109; [7]) was 50 µg/mL (≈ 84.8 µM), the MIC (Ps. aeruginosa AKR17; [8]) was over 100 µg/mL and the MIC (Ps. aeruginosa IF03445; [9]) was 100 µg/mL (≈ 170 µM). The MIC (Ps. cepacia 23; Burkholderia cepacia, 23, 16 h) was 12.5 µg/mL (≈ 21.2 µM) and the MIC (A. calcoaceticus No. 4; [10]) was 50 µg/mL (≈ 84.8 µM).

Work on `CO/N=C(\C(=O)N[C@@H]1C(=O)N2C(C(=O)O)=C(CSc3ncc(-c4ccc(O)cc4)o3)CS[C@H]12)c1csc(N)n1` [compound 23, sodium 7β-[2-(2-aminothiazol-4-yl)-2-methoxyiminoacetamido]-3-[5-(4-hydroxyphenyl)-oxazol-2-yl]thiomethyl-3-cephem-4-carboxylate, reference compound] yielded an MIC (E. coli CSH(RE45)) of 0.78 µg/mL, an MIC (E. coli CSH2 (RK1)) of 0.78 µg/mL and an MIC (E. cloacae 963; [1]) of 3.12 µg/mL. It also gave an MIC (E. cloacae Nek 39) of 6.25 µg/mL, an MIC (E. coli GN5482; [4]) of 0.78 µg/mL and an MIC (E. coli NIHJ JC2) of 1.56 µg/mL. For the same molecule, the MIC (K. oxytoca GN10650; [5]) was 25 µg/mL, the MIC (K. pneumoniae No. 42; [2]) was 3.12 µg/mL and the MIC (K. pneumoniae PCI-602) was 0.0125 µg/mL. It also gave an MIC (M. morganii GN5407) of 1.56 µg/mL, an MIC (P. vulgaris HX-19) of under 0.006 µg/mL and an MIC (P. vulgaris No. 33) of 0.78 µg/mL. The MIC (S. aureus 209P NIHJ-JC1; [3]) was 0.2 µg/mL, the MIC (S. marcescens IAM 1184) was 0.78 µg/mL and the MIC (S. marcescens No. 16-2; [6]) was 25 µg/mL. The MIC (Ps. aeruginosa AK 109; [7]) was 50 µg/mL, the MIC (Ps. aeruginosa AKR17; [8]) was over 100 µg/mL and the MIC (Ps. aeruginosa IF03445; [9]) was 50 µg/mL. The MIC (Ps. cepacia 23; Burkholderia cepacia, 23, 16 h) was 3.12 µg/mL and the MIC (A. calcoaceticus No. 4; [10]) was 50 µg/mL.

— patent US5061794A, “Cephalosporin derivatives, and antibacterial agents” (priority 1986, dated 1991)
